Test results from US5310920A, “N-vinylimidazolidine derivatives insecticides containing same as an effective ingredient” (priority 1991, dated 1994).
Values after ≈ are worked out from the molar mass of the structure shown. Read-outs that look alike come from different tables or passages of the source.

Columns and labels:
[1] = test system: Myzus persicae Suizer - green peach aphid; assay: Test Example 4: Effect on green peach aphid, density of living insects; format: in vivo; settings: 50 ppm, after three days; 100 × (living insects after / before treatment)
Procedure: Effect on Myzus persicae Suizer green peach aphid
20 ml of a dilution of the emulsion prepared in Formulation Example 1 was sprayed over potted eggplant seedlings (fourth or fifth leaf stage), as having been grown in a greenhouse, on which the green peach aphids had been parasitic. After the application, the seedlings were placed in the greenhouse and, after three days, the number of the aphids was checked.
(§1) Density of Living Insects = 100 × (number of living insects after
(§2) treatment/number of living insects before treatment)

[2] = test system: Callosobruchus chinensis Linne - Azuki bean weevil; assay: whole plant or invertebrate; format: in vivo; settings: 48 h
Procedure: Effect on Callosobruchus chinensis Linne--Azuki bean weevil:
An acetone solution of the compound of the invention was added to a Petri dish with a diameter of 9 cm, followed by removal of the acetone by evaporation. Twenty female adults of the Azuki bean weevil, which were 2 to 3 days after emergence were placed in the dish at 25° C. After 48 hours, the mortality was checked.

[3] = test system: resistant strain of Nephotettix cincticeptus Uhler - resistant green rice leafhopper; assay: Test Example 2: Effect on resistant green rice leafhopper, mortality; format: in vivo; settings: Nephotettix cincticeps
Procedure: (§3) Effect on resistant strain of Nephotettix cincticeptus Uhler--resistant green rice leafhopper
(§4) The emulsion prepared in Formulation Example 1 was diluted to a predetermined concentration and 3 ml of the diluted emulsion was applied over a bundle of several rice seedlings (about third leaf stage). After drying in air, the treated seedlings were covered with a metal gauze cylinder, in which ten female adults of the leafhopper that is resistant to organophosphate and carbamate insecticides were released, followed by placing in a temperature controlled room at 25° C. After 48 hours, the mortality was checked.

[4] = test system: Laodelphax striatellus Fallen - smaller brown planthopper; assay: Test Example 1: Effect on smaller brown planthopper, mortality; format: in vivo; settings: 5 ppm, 48 hours, 25° C., ten female adults, rice seedlings
Procedure: Effect on Laodelphax sriatellus Fallen--smaller brown planthopper
as §4, with “2” for “3”, “smaller brown planthopper” for “leafhopper that is resistant to organophosphate and carbamate insecticides”

[5] = test system: Laodelphax striatellus Fallen - smaller brown planthopper; assay: Test Example 5: Effect on smaller brown planthopper, LC50; format: in vivo; settings: 48 hours, 25° C.
Procedure: Effect on Laodelphax striatellus Fallen--smaller brown planthopper
The emulsion prepared in Formulation Example 1 was diluted to predetermined concentrations, and 2 ml of each diluted emulsion was applied over a bundle of several rice seedlings (about third leaf stage). After drying in air, the treated seedlings were covered with a metal gauze cylinder, in which ten female adults of the smaller brown planthopper were released, followed by placing in a temperature controlled room at 25° C. After 48 hours, the mortality was checked, from which the medium-lethal concentration […] was obtained.

[6] = test system: resistant strain of Nephotettix cincticeptus Uhler - resistant green rice leafhopper; assay: Test Example 6: Effect on resistant green rice leafhopper, LC50; format: in vivo; settings: Nephotettix cincticeps, 48 h
Procedure: as §3
The emulsion prepared in Formulation Example 1 was diluted to predetermined concentrations, and 2 ml of each diluted emulsion was applied over a bundle of several rice seedlings (about third leaf stage). After drying in air, the treated seedlings were covered with a metal gauze cylinder, in which ten female adults of the leafhopper that is resistant to organophosphate and carbamate insecticides were released, followed by placing in a temperature controlled room at 25° C. After 48 hours, the mortality was checked, from which the 50 %-lethal concentration (LC50) was obtained.

[7] = test system: Myzus persicae Suizer - green peach aphid; assay: Test Example 7: Effect on green peach aphid, density of living insects; format: in vivo; settings: after three days; 100 × (living insects after / before treatment)
From the text: Effect on Myzus persicae Suizer--green peach aphid
After the application, the seedlings were placed in the greenhouse and, after three days, the number of the aphids was checked, from which the density of the living insects was obtained. The tests were repeated two times.
as §1, §2

[8] = Test Example 8: Acute Toxicity Test to Mice; settings: mouse, in vivo, po; forced peroral administration, corn oil, 6-week mice, up to 14 days
Procedure: Acute Toxicity Test to Mice
The compound of the invention having a predetermined concentration was dissolved in corn oil and applied to 6-week mice by forced peroral administration. Up to 14 days from the administration, the number of the died mice was counted periodically, from which the 50 %-lethal […] (LD50) was obtained. One group for the test comprised ten mice.

[9] = 3 ppm, 48 hours, 25° C., ten female adults resistant to organophosphate and carbamate insecticides, read-out: Mortality (%)

SMILES: COP(=O)(OC)OC=C(Cl)Cl [DDVP, 0,0-dimethyl-0-(2,2-dichlorovinyl)phosphate]
- Density of Living Insects [1]: 30

SMILES: CCOP(=S)(OCC)Oc1cc(C)nc(C(C)C)n1 [Diazinone]
- mortality at 0.01 mg/dish, 0.01 mg/dish [2]: 58%

SMILES: C=CN1CCN(Cc2ccc(Cl)nc2)C1=N[N+](=O)[O-] [No. 1]
- mortality at 3 ppm [3, 9]: 100%
- Mortality (%) [4]: 100%

SMILES: O=[N+]([O-])N=C1N(C=Cc2ccccc2)CCN1Cc1ccc(Cl)nc1 [No. 2]
- mortality at 3 ppm ([3]; 48 h): 100%
- LC50 [5]: 3 ppm
- LC50 [6]: 1.5 µg/mL (≈ 4.19 µM)
- Density of Living Insects [7]: 20

SMILES: COc1ccc(C=CN2CCN(Cc3ccc(Cl)nc3)C2=N[N+](=O)[O-])cc1 [No. 10]
- mortality at 3 ppm [3, 9]: 100%
- LD50 at 336 h [8]: > 5000 mg/kg

SMILES: O=[N+]([O-])N=C1N(C=Cc2ccc3c(c2)OCO3)CCN1Cc1ccc(Cl)nc1 [No. 11]
- mortality at 3 ppm [3, 9]: 100%
- Mortality (%) [4]: 100%

SMILES: O=[N+]([O-])N=C1N(C=Cc2ccccc2Cl)CCN1Cc1ccc(Cl)nc1 [No. 12]
- Mortality (%) [4]: 100%

SMILES: O=[N+]([O-])N=C1N(C=Cc2ccc(Cl)cc2)CCN1Cc1ccc(Cl)nc1 [No. 14]
- Mortality (%) [4]: 100%

SMILES: CC(C)C=CN1CCN(Cc2ccc(Cl)nc2)C1=N[N+](=O)[O-] [No. 27]
- LC50 [5]: 1 ppm
- LD50 at 336 h [8]: 1000 mg/kg
- LC50 [6]: 0.3 µg/mL (≈ 0.927 µM)
- Density of Living Insects [7]: 0

SMILES: CCCCC(=CN1CCN(Cc2ccc(Cl)nc2)C1=N[N+](=O)[O-])CC [No. 33, 1-(2-chloropyridin-5-ylmethyl)-2-nitroimino-3-(2-ethyl-1hexenyl)imidazlidine]
- mortality at 3 ppm [3, 9]: 100%
- Mortality (%) [4]: 100%

SMILES: O=[N+]([O-])N=C1N(C=CCc2ccccc2)CCN1Cc1ccc(Cl)nc1 [No. 40]
- mortality at 3 ppm [3, 9]: 100%
- Mortality (%) [4]: 100%

SMILES: O=C(NC=CN1CCN(Cc2ccc(Cl)nc2)C1=N[N+](=O)[O-])c1ccccc1 [No. 41]
- Mortality (%) [4]: 100%

SMILES: CCSC=CN1CCN(Cc2ccc(Cl)nc2)C1=N[N+](=O)[O-] [No. 42, 1-(2-chloropyridin-5-ylmethyl)-2-nitroimino-3-(2-ethylthiovinyl)imidazolidine]
- Mortality (%) [4]: 100%

SMILES: C=CCN1CCN(Cc2ccc(Cl)nc2)C1=N[N+](=O)[O-] [Reference Chemical 1, 1(2-chloropyridin-5-ylmethyl)-2-nitroimino-3-allylimidazolidine, reference compound]
- LC50 [5]: 10 ppm
- LD50 at 336 h [8]: 100 to 200 mg/kg
- LC50 [6]: 3 µg/mL (≈ 10.1 µM)
- Density of Living Insects [7]: 25

SMILES: O=[N+]([O-])N=C1N(CCc2ccccc2)CCN1Cc1ccc(Cl)nc1 [Reference Chemical 2, 1(2-chloropyridin-5-ylmethyl)-2-nitroimino-3-(2-phenylethyl)imidazolidine, reference compound]
- LC50 [5]: 20 ppm
- LC50 [6]: 10 µg/mL (≈ 27.8 µM)
- Density of Living Insects [7]: 108

SMILES: O=[N+]([O-])N=C1N(CCc2ccc(Cl)cc2)CCN1Cc1ccc(Cl)nc1 [Reference Chemical (1), 1(2-chloropyridin-5-ylmethyl)-2-nitroimino-3-{2-(4-chlorophenyl)ethyl}imiazolidine, reference compound]
- mortality at 3 ppm [3, 9]: 25%
- Mortality (%) [4]: 20%

SMILES: COCN1CCN(Cc2ccc(Cl)nc2)C1=N[N+](=O)[O-] [Reference Chemical (2), 1(2-chloropyridin-5-ylmethyl)-2-nitroimino-3-methoxymethylimidazolidine, reference compound]
- mortality at 3 ppm [3, 9]: 30%
- Mortality (%) [4]: 20%
